{"source": "patent US9340590B2", "about": "(priority 2011, dated 2016)", "key": {"hNav1.7": {"molecular_target": "hNav1.7 (Homo sapiens, UniProt Q15858)", "sequence (Q15858 whole entry, looked up)": "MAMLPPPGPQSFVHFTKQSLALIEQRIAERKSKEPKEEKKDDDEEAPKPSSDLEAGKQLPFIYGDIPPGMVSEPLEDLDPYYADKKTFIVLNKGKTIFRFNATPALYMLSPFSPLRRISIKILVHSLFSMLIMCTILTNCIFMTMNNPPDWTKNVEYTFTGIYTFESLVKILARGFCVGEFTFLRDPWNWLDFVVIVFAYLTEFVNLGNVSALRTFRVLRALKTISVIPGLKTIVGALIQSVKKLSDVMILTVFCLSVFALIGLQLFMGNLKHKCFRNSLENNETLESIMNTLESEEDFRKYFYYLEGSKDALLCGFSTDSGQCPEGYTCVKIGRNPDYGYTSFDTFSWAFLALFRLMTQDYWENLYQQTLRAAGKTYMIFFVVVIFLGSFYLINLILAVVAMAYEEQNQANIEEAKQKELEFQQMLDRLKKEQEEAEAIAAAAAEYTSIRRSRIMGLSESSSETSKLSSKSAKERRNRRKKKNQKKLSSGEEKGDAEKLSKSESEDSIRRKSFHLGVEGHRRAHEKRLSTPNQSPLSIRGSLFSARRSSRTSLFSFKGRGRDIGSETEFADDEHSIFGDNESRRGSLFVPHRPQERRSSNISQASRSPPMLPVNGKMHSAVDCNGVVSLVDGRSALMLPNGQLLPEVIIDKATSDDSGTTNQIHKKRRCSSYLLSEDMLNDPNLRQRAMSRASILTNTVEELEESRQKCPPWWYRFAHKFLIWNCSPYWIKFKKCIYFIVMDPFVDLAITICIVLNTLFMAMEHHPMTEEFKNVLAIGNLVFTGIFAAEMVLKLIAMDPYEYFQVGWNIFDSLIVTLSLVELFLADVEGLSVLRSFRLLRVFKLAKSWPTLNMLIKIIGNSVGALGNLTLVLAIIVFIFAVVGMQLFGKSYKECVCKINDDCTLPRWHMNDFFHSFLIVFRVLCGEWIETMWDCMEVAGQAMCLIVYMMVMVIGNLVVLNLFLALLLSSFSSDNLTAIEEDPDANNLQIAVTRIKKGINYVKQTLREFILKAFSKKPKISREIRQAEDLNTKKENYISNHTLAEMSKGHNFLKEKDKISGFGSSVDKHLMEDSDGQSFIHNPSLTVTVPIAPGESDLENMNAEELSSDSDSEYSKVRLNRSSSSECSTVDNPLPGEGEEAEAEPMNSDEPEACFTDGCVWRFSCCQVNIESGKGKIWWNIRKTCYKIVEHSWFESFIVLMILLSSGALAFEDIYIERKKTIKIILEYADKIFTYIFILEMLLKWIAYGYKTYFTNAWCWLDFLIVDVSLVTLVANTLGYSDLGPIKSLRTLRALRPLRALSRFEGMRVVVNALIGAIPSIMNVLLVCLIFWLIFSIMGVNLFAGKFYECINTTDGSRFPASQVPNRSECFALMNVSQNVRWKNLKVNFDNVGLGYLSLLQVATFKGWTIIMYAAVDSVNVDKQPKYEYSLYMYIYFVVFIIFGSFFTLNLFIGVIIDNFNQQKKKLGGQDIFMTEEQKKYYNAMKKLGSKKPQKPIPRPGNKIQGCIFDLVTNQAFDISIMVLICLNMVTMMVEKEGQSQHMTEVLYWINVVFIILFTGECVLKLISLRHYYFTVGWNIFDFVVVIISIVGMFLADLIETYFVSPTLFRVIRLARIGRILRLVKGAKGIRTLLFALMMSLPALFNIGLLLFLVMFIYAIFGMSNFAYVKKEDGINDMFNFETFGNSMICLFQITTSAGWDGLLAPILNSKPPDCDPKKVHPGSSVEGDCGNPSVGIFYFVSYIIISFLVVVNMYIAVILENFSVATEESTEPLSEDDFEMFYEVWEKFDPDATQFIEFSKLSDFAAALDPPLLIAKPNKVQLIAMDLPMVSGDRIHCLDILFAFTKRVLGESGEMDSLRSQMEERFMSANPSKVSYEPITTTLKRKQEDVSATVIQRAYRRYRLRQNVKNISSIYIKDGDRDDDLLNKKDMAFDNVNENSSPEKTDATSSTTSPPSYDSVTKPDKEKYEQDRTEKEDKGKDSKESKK", "experiment": "cell-based", "format": "cell-based", "conditions": "for pIC50: IonWorks Quattro, read-out: IWQ Use Nav1.7"}, "hNav1.3": {"molecular_target": "hNav1.3 (Homo sapiens, UniProt Q9NY46)", "sequence (Q9NY46 whole entry, looked up)": "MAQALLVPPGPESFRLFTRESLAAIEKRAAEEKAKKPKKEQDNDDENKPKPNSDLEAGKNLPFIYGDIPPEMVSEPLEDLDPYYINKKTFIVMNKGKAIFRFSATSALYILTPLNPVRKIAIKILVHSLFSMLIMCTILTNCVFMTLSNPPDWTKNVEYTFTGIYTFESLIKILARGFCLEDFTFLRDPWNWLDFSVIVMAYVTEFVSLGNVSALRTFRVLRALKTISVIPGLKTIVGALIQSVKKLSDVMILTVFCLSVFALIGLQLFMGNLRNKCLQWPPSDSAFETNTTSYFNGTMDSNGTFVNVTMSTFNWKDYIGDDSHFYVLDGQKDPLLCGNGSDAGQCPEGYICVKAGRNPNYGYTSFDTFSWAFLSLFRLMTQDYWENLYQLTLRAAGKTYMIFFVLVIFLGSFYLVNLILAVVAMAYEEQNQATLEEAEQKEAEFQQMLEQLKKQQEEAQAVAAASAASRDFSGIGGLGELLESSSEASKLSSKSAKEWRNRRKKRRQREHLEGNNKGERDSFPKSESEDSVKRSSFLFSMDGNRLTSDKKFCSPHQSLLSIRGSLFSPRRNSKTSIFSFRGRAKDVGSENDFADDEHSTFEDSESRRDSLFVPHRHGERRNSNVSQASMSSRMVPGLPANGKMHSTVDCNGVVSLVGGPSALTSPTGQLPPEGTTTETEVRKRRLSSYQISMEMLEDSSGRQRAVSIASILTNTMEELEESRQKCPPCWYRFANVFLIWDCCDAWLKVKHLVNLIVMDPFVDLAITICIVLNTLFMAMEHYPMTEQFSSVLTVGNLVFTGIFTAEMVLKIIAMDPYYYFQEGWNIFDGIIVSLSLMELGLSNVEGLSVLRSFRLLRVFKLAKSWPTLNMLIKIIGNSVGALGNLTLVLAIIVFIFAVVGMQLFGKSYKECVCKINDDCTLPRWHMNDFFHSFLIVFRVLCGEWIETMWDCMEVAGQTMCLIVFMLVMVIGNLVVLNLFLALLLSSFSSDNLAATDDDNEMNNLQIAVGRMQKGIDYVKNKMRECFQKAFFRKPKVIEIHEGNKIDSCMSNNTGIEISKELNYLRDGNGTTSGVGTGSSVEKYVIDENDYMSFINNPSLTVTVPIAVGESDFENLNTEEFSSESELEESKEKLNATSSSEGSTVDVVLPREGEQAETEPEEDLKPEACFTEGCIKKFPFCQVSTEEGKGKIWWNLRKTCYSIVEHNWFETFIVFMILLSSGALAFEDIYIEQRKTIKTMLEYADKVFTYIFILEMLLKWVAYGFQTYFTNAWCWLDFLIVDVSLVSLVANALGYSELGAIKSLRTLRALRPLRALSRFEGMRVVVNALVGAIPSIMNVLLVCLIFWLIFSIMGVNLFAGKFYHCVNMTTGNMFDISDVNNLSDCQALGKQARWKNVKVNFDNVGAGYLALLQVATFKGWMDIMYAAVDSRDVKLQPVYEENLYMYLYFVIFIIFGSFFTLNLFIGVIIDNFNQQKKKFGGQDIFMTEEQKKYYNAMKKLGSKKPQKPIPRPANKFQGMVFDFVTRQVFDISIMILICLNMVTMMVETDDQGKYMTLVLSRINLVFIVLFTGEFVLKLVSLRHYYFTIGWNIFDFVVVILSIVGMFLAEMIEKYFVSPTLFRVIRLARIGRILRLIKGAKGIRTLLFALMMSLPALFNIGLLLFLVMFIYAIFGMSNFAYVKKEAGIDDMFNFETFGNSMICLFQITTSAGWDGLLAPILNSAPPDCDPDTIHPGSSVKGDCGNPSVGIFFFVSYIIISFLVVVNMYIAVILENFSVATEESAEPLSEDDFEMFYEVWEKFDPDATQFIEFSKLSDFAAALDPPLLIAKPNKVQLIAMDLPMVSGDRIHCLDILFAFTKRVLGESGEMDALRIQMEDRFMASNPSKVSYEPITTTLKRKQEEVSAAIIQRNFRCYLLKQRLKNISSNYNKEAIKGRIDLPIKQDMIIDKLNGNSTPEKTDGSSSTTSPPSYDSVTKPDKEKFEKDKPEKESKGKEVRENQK", "experiment": "cell-based", "conditions": "for pIC50: IonWorks Quattro, read-out: IWQ Use Nav1.3; for Nav1.7/Nav1.3: Nav1.7 over Nav1.3"}, "[1]": {"conditions": "ratio of IWQ Use values, Nav1.4 over Nav1.7"}, "[2]": {"conditions": "ratio of IWQ Use values, Nav1.4 over Nav1.3"}}, "note": "pIC50: −log10 of the molar value. Like-named read-outs stand apart in the source and are kept apart here. Positions of bridges follow the written chain, without caps; N, C: chain ends. Residues, ends and D or L forms follow the SMILES beside them."}
{"smiles": "CC[C@H](C)[C@@H]1NC(=O)[C@@H]2CSSC[C@@H]3NC(=O)[C@H](C(C)C)NC(=O)[C@H](CC(C)C)NC(=O)[C@H](CC(N)=O)NC(=O)[C@@H]4CCCN4C(=O)[C@H](CCCNC(=N)N)NC(=O)[C@H](CSSC[C@H](NC(=O)[C@@H](N)CC(=O)O)C(=O)N[C@@H](CC(C)C)C(=O)NCC(=O)N[C@@H](Cc4ccccc4)C(=O)N[C@@H](CCSC)C(=O)N[C@@H](CCCNC(=N)N)C(=O)N[C@@H](CCCCN)C(=O)N2)NC(=O)[C@H](CSSC[C@@H](C(=O)N[C@@H](CCCCN)C(=O)N[C@@H](CCC(=O)O)C(=O)N[C@H](C(=O)N[C@@H](Cc2ccccc2)C(N)=O)C(C)C)NC(=O)[C@H](Cc2c[nH]c4ccccc24)NC(=O)[C@H](CCCCN)NC(=O)[C@H](Cc2cnc[nH]2)NC(=O)[C@H]([C@@H](C)O)NC(=O)[C@H](CCCNC(=N)N)NC(=O)[C@H](CO)NC3=O)NC(=O)[C@H](CCCCN)NC(=O)[C@H](CC(=O)O)NC(=O)[C@H](CC(N)=O)NC(=O)[C@H](CC(=O)O)NC(=O)[C@@H]2CCCN2C1=O", "note": "[compound 32] (H-DCLGFMRKCIPDNDKCCRPNLVCSRTHKWCKEVF-NH2; disulfide 2-17, 9-23, 16-30)", "values": [{"measurement": "pIC50", "setting": "hNav1.7; Table 25, use, […]", "value": 4.86}, {"measurement": "pIC50", "setting": "hNav1.3; Table 25, use, […]", "value": 5.04}]}
{"smiles": "CC[C@H](C)[C@@H]1NC(=O)[C@@H]2CSSC[C@@H]3NC(=O)[C@H](C(C)C)NC(=O)[C@H](CC(C)C)NC(=O)[C@H](CC(N)=O)NC(=O)[C@@H]4CCCN4C(=O)[C@H](CCCNC(=N)N)NC(=O)[C@H](CSSC[C@H](NC(=O)[C@@H](N)CC(=O)O)C(=O)N[C@@H](CC(C)C)C(=O)NCC(=O)N[C@@H](Cc4ccccc4)C(=O)N[C@@H](CCSC)C(=O)N[C@@H](CCCNC(=N)N)C(=O)N[C@@H](CCCCN)C(=O)N2)NC(=O)[C@H](CSSC[C@@H](C(=O)N[C@@H](CCCCN)C(=O)N[C@@H](Cc2ccc(O)cc2)C(=O)N[C@H](C(=O)N[C@@H](Cc2ccccc2)C(N)=O)C(C)C)NC(=O)[C@H](CCCCN)NC(=O)[C@H](CCCCN)NC(=O)[C@H](Cc2c[nH]cn2)NC(=O)[C@H]([C@@H](C)O)NC(=O)[C@H](CCCNC(=N)N)NC(=O)[C@H](CO)NC3=O)NC(=O)[C@H](CCCCN)NC(=O)[C@H](CC(=O)O)NC(=O)[C@H](CC(N)=O)NC(=O)[C@H](CC(=O)O)NC(=O)[C@@H]2CCCN2C1=O", "note": "[compound 56] (H-DCLGFMRKCIPDNDKCCRPNLVCSRTHKKCKYVF-NH2; disulfide 2-17, 9-23, 16-30)", "values": [{"measurement": "Nav1.4/Nav1.7", "setting": "hNav1.7", "value": 1.4}, {"measurement": "Nav1.7/Nav1.3", "setting": "hNav1.7", "value": 0.8}, {"measurement": "Nav1.4/Nav1.3", "setting": "hNav1.3", "value": 1.1}]}
{"smiles": "CC[C@H](C)[C@@H]1NC(=O)[C@@H]2CSSC[C@@H]3NC(=O)[C@H](C(C)C)NC(=O)[C@H](CC(C)C)NC(=O)[C@H](CC(N)=O)NC(=O)[C@@H]4CCCN4C(=O)[C@H](CCCNC(=N)N)NC(=O)[C@H](CSSC[C@H](NC(=O)[C@@H](N)CC(=O)O)C(=O)N[C@@H](CC(C)C)C(=O)NCC(=O)N[C@@H](Cc4ccccc4)C(=O)N[C@@H](CCSC)C(=O)N[C@@H](CCCNC(=N)N)C(=O)N[C@@H](CCCCN)C(=O)N2)NC(=O)[C@H](CSSC[C@@H](C(=O)N[C@@H](CCCCN)C(=O)N[C@@H](Cc2ccc(O)cc2)C(=O)N[C@H](C(=O)N[C@@H](Cc2ccccc2)C(N)=O)C(C)C)NC(=O)[C@H](Cc2c[nH]c4ccccc24)NC(=O)[C@H](CCCCN)NC(=O)[C@H](Cc2c[nH]c4ccccc24)NC(=O)[C@H]([C@@H](C)O)NC(=O)[C@H](CCCNC(=N)N)NC(=O)[C@H](CO)NC3=O)NC(=O)[C@H](CCCCN)NC(=O)[C@H](CC(=O)O)NC(=O)[C@H](CC(N)=O)NC(=O)[C@H](CC(=O)O)NC(=O)[C@@H]2CCCN2C1=O", "note": "[compound 84] (H-DCLGFMRKCIPDNDKCCRPNLVCSRTWKWCKYVF-NH2; disulfide 2-17, 9-23, 16-30)", "values": [{"measurement": "pIC50", "setting": "hNav1.7; Table 23, use, […]", "value": 6.49}, {"measurement": "pIC50", "setting": "hNav1.3; Table 23, use, […]", "value": 6.23}]}
{"smiles": "CC[C@H](C)[C@@H]1NC(=O)[C@@H]2CSSC[C@@H]3NC(=O)[C@H](C(C)C)NC(=O)[C@H](CC(C)C)NC(=O)[C@H](CC(N)=O)NC(=O)[C@@H]4CCCN4C(=O)[C@H](CCCNC(=N)N)NC(=O)[C@H](CSSC[C@H](NC(=O)[C@@H](N)CC(=O)O)C(=O)N[C@@H](CC(C)C)C(=O)NCC(=O)N[C@@H](Cc4ccccc4)C(=O)N[C@@H](CCSC)C(=O)N[C@@H](CCCNC(=N)N)C(=O)N[C@@H](CCCCN)C(=O)N2)NC(=O)[C@H](CSSC[C@@H](C(=O)N[C@@H](CCCCN)C(=O)N[C@@H](Cc2ccc(O)cc2)C(=O)N[C@H](C(=O)N[C@@H](Cc2ccccc2)C(N)=O)C(C)C)NC(=O)[C@H](Cc2c[nH]c4ccccc24)NC(=O)[C@H](CCCCN)NC(=O)[C@H](Cc2cnc[nH]2)NC(=O)[C@H](Cc2cnc[nH]2)NC(=O)[C@H](CCCNC(=N)N)NC(=O)[C@H](CO)NC3=O)NC(=O)[C@H](CCCCN)NC(=O)[C@H](CC(=O)O)NC(=O)[C@H](CC(N)=O)NC(=O)[C@H](CC(=O)O)NC(=O)[C@@H]2CCCN2C1=O", "note": "[compound 337] (H-DCLGFMRKCIPDNDKCCRPNLVCSRHHKWCKYVF-NH2; disulfide 2-17, 9-23, 16-30)", "values": [{"measurement": "pIC50", "setting": "hNav1.7; Table 22, use, […]", "value": 7.00}, {"measurement": "pIC50", "setting": "hNav1.3; Table 22, use, […]", "value": 7.10}]}
{"smiles": "CC[C@H](C)[C@@H]1NC(=O)[C@@H]2CSSC[C@@H]3NC(=O)[C@H](C(C)C)NC(=O)[C@H](CC(C)C)NC(=O)[C@H](CC(N)=O)NC(=O)[C@@H]4CCCN4C(=O)[C@H](CCCNC(=N)N)NC(=O)[C@H](CSSC[C@H](NC(=O)[C@@H](N)CC(=O)O)C(=O)N[C@@H](CC(C)C)C(=O)NCC(=O)NC(C)(C)C(=O)N[C@@H](CC(C)C)C(=O)N[C@@H](CCCNC(=N)N)C(=O)N[C@@H](CCCCN)C(=O)N2)NC(=O)[C@H](CSSC[C@@H](C(=O)N[C@@H](CCCCN)C(=O)N[C@@H](Cc2ccc(O)cc2)C(=O)N[C@H](C(=O)N[C@@H](Cc2ccccc2)C(N)=O)C(C)C)NC(=O)[C@H](Cc2c[nH]c4ccccc24)NC(=O)[C@H](CCCCN)NC(=O)[C@H](Cc2c[nH]cn2)NC(=O)[C@H]([C@@H](C)O)NC(=O)[C@H](CCCNC(=N)N)NC(=O)[C@H](CO)NC3=O)NC(=O)[C@H](CCCCN)NC(=O)[C@H](CC(=O)O)NC(=O)[C@H](CC(N)=O)NC(=O)[C@H](CC(=O)O)NC(=O)[C@@H]2CCCN2C1=O", "note": "[compound 635]", "values": [{"measurement": "pIC50", "setting": "hNav1.7; use-dependent protocol, hNav1.7", "value": 6.64}, {"measurement": "pIC50", "setting": "hNav1.3; use-dependent protocol, hNav1.3", "value": 6.42}]}
{"smiles": "CC[C@H](C)[C@@H]1NC(=O)[C@@H]2CSSC[C@@H]3NC(=O)[C@H](C(C)C)NC(=O)[C@H](CC(C)C)NC(=O)[C@H](CC(N)=O)NC(=O)[C@@H]4CCCN4C(=O)[C@H](CCCNC(=N)N)NC(=O)[C@H](CSSC[C@H](NC(=O)[C@@H](N)CC(=O)O)C(=O)N[C@@H](CC(C)C)C(=O)NCC(=O)N[C@@H](Cc4ccc(Cl)c(Cl)c4)C(=O)N[C@@H](CCSC)C(=O)N[C@@H](CCCNC(=N)N)C(=O)N[C@@H](CCCCN)C(=O)N2)NC(=O)[C@H](CSSC[C@@H](C(=O)N[C@@H](CCCCN)C(=O)N[C@@H](Cc2ccc(O)cc2)C(=O)N[C@H](C(=O)N[C@@H](Cc2ccccc2)C(N)=O)C(C)C)NC(=O)[C@H](Cc2c[nH]c4ccccc24)NC(=O)[C@H](CCCCN)NC(=O)[C@H](Cc2c[nH]cn2)NC(=O)[C@H]([C@@H](C)O)NC(=O)[C@H](CCCNC(=N)N)NC(=O)[C@H](CO)NC3=O)NC(=O)[C@H](CCCCN)NC(=O)[C@H](CC(=O)O)NC(=O)[C@H](CC(N)=O)NC(=O)[C@H](CC(=O)O)NC(=O)[C@@H]2CCCN2C1=O", "note": "[compound 653]", "values": [{"measurement": "Nav1.4/Nav1.7", "setting": "hNav1.7; [1]", "value": 8.8}, {"measurement": "Nav1.4/Nav1.3", "setting": "hNav1.3; [2]", "value": 17.7}, {"measurement": "Nav1.7/Nav1.3", "setting": "hNav1.3; ratio of IWQ Use values", "value": 2.0}]}
{"smiles": "CC[C@H](C)[C@@H]1NC(=O)[C@@H]2CSSC[C@@H]3NC(=O)[C@H](C(C)C)NC(=O)[C@H](CC(C)C)NC(=O)[C@H](CC(N)=O)NC(=O)[C@@H]4CCCN4C(=O)[C@H](CCCNC(=N)N)NC(=O)[C@H](CSSC[C@H](NC(=O)[C@@H](N)CC(=O)O)C(=O)N[C@@H](CC(C)C)C(=O)NCC(=O)N[C@@H](Cc4ccc(C(F)(F)F)cc4)C(=O)N[C@@H](CCSC)C(=O)N[C@@H](CCCNC(=N)N)C(=O)N[C@@H](CCCCN)C(=O)N2)NC(=O)[C@H](CSSC[C@@H](C(=O)N[C@@H](CCCCN)C(=O)N[C@@H](Cc2ccc(O)cc2)C(=O)N[C@H](C(=O)N[C@@H](Cc2ccccc2)C(N)=O)C(C)C)NC(=O)[C@H](Cc2c[nH]c4ccccc24)NC(=O)[C@H](CCCCN)NC(=O)[C@H](Cc2c[nH]cn2)NC(=O)[C@H]([C@@H](C)O)NC(=O)[C@H](CCCNC(=N)N)NC(=O)[C@H](CO)NC3=O)NC(=O)[C@H](CCCCN)NC(=O)[C@H](CC(=O)O)NC(=O)[C@H](CC(N)=O)NC(=O)[C@H](CC(=O)O)NC(=O)[C@@H]2CCCN2C1=O", "note": "[compound 654]", "values": [{"measurement": "Nav1.4/Nav1.7", "setting": "hNav1.7; [1]", "value": 4.1}, {"measurement": "Nav1.4/Nav1.3", "setting": "hNav1.3; [2]", "value": 18.4}, {"measurement": "Nav1.7/Nav1.3", "setting": "hNav1.3; ratio of IWQ Use values", "value": 4.4}]}
{"smiles": "CC[C@H](C)[C@@H]1NC(=O)[C@@H]2CSSC[C@@H]3NC(=O)[C@H](C(C)C)NC(=O)[C@H](CC(C)C)NC(=O)[C@H](CC(N)=O)NC(=O)[C@@H]4CCCN4C(=O)[C@H](CCCNC(=N)N)NC(=O)[C@H](CSSC[C@H](NC(=O)[C@@H](N)CC(=O)O)C(=O)N[C@@H](CC(C)C)C(=O)NCC(=O)N[C@@H](Cc4ccc(F)cc4)C(=O)N[C@@H](CCSC)C(=O)N[C@@H](CCCNC(=N)N)C(=O)N[C@@H](CCCCN)C(=O)N2)NC(=O)[C@H](CSSC[C@@H](C(=O)N[C@@H](CCCCN)C(=O)N[C@@H](Cc2ccc(O)cc2)C(=O)N[C@H](C(=O)N[C@@H](Cc2ccccc2)C(N)=O)C(C)C)NC(=O)[C@H](Cc2c[nH]c4ccccc24)NC(=O)[C@H](CCCCN)NC(=O)[C@H](Cc2c[nH]cn2)NC(=O)[C@H]([C@@H](C)O)NC(=O)[C@H](CCCNC(=N)N)NC(=O)[C@H](CO)NC3=O)NC(=O)[C@H](CCCCN)NC(=O)[C@H](CC(=O)O)NC(=O)[C@H](CC(N)=O)NC(=O)[C@H](CC(=O)O)NC(=O)[C@@H]2CCCN2C1=O", "note": "[compound 655]", "values": [{"measurement": "Nav1.4/Nav1.7", "setting": "hNav1.7; [1]", "value": 7.1}, {"measurement": "Nav1.4/Nav1.3", "setting": "hNav1.3; [2]", "value": 26.6}, {"measurement": "Nav1.7/Nav1.3", "setting": "hNav1.3; ratio of IWQ Use values", "value": 3.8}]}
